Measurements as given in patent US11643439B2, “Multi-target compound with anticoagulation and antiplatelet activity, preparation method therefor, and use thereof” (SHAANXI MICOT TECHNOLOGY LIMITED COMPANY, priority 2015, dated 2023).
Marks after values point to notes of the source that are not given here.

Columns and labels:
[1] = system: FeCl3-induced common carotid arterial thrombosis; assay: FeCl3-induced common carotid arterial thrombosis in rats; format: in vivo, rat
Procedure: (§1) 160 Rats were randomly divided into groups, 5 to 10 rats per group.
(§2) According to the body weight in kilograms of the rats, the first dose of a drug was dissolved in 2 mL of physiological saline for single bolus injection. The maintaining dose of drug was dissolved in 9 ml of physiological saline, and placed in a double-channel micro-injection pump, which was dripped off within 90 minutes at a dripping speed of 0.1 ml/min. The sham operation group was administered with the same volume of physiological saline.
(§3) The rats were fasted with free access to water overnight before the experiment.
After administration at a load dosage maintenance for 30 minutes, a filter paper with a 3 mm diameter and immersed with 35% FeCl3 solution was applied below the common carotid artery, below which a small piece of a plastic film (2.5 cm×2.0 cm) was placed to protect surrounding tissues. The body temperature was detected with a temperature probe in the distal end of the artery, and the time required from the beginning of stimulation to the point when the temperature decreased by 2.5 degrees was examined as the vascular occlusion time.
The time from the point when FeCl3 was placed to the point when the temperature of the artery indicated a decrease of 2.5° C. was the vascular occlusion time, which reflected the state of thrombus formation.

[2] = system: blood coagulation function; assay: APTT in rabbits, single intravenous administration; format: in vivo, rabbit
Procedure: (§4) 1. Grouping and administration: 48 Rabbits were randomly divided into 6 groups, 8 rabbits per group. 1) Sham operation group (NS): Intravenous injection of the same volume of physiological saline; 2) positive control bivalirudin group (6 mg/kg); 3) positive control enoxaparin group (200 U/kg); 4) Low dose group of polypeptide 2 (3.0 mg/kg); 5) Medium dose group of polypeptide 2 (6.0 mg/kg); 6) High dose group of polypeptide 2 (12.0 mg/kg). Polypeptide 2 was administered by single intravenous administration. According to the body weight in kilograms of the rabbits, the sample was dissolved in 2 mL of physiological saline for single bolus injection. The sham operation group was administered with the same volume of physiological saline.
(§5) 3.2 Determination of blood coagulation function: Blood samples were taken and the blood function (PT, TT, APTT) was determined at 0 min before administration, at points of 5 min and 15 min after administration, using a platelet-aggregation coagulation factor analyzer. Blood samples were centrifuged at 3510 rpm for 8 min to obtain platelet poor plasma (PPP). Reagent reconstruction and preservation were performed according to the operation requirements of the kit. Immediately after each blood sample was placed into a test cup and then added with PT. TT and APTT reagents, the test was started. After the test was completed, results were recorded.

[3] = system: FeCl3-induced inferior vena cava thrombosis; assay: FeCl3-induced inferior vena cava thrombosis in rats; format: in vivo, rat
Procedure: as §1, §2, §3
15 minutes later, the filter paper was removed. And then, after observation for 45 minutes, the blood vessels and local tissues were rinsed with warm physiological saline, and the covered blood vessels were cut off. The thrombus which attached to the blood vessel walls was peeled off to be weighed on a tin foil for its wet weight, and then weighed overnight at room temperature for its dry weight. The administration was continued until the completion of the experiment.
After the experiment was completed, the segment of the blood vessels in which there had been thrombus formation was cut off, weighed for the wet weight, and then weighed overnight at room temperature for the dry weight of the thrombus. Thrombosis inhibitory rate was calculated.

[4] = system: platelet aggregation; assay: Platelet aggregation in rabbits, single intravenous administration; format: in vivo, rabbit
Procedure: as §4
3.1 Platelet aggregation rate: 2.7 ml of blood was taken from the femoral vein, rapidly injected into a centrifuge tube containing 0.3 ml of 3.8% sodium citrate solution, and fully mixed well. The resulted blood samples were centrifuged at 810 rpm (100 g) for 8 min to obtain PRP, which was taken out and centrifuged at 3500 rpm (1863 g) for 8 min to obtain PPP, which was used to determine platelet aggregation.
Blood samples were taken at a point before administration (0 min), and at points of administration for 5 min and 15 min, respectively, to determine the platelet aggregation rate, which was used to calculate the inhibitory rate of platelet aggregation with a calculation equation as follows: […]

[5] = system: blood coagulation function; assay: PT in rabbits, single intravenous administration; format: in vivo, rabbit
Procedure: as §4, §5

[6] = system: thrombin-induced pulmonary embolism; assay: Thrombin-induced pulmonary embolism in mice; format: in vivo, mouse; settings: thrombin 1500 u/kg; for Mortality rate: within 15 min
Procedure: Mice were randomly divided into 7 groups with 10 mice per group, in which group 1 was physiological saline group, group 2 was model control group, group 3 was positive control group of enoxaparin 0.5 mg/kg, group 4 was positive control group of bivalirudin 8 mg/kg, group 5 was low dose group of polypeptide 2 at 2.5 mg/kg, group 6 was medium dose group of polypeptide 2 at 5.0 mg/kg, and group 7 was high dose group of polypeptide 2 at 10.0 mg/kg. Except that physiological saline group and model control group were subjected to tail intravenous injection of 200 μl physiological saline, the other groups were given according to the doses, respectively. After 2 min, the mice in physiological saline group were administered with 100 μl physiological saline through tail intravenous injection and the other groups were each administered with 100 μl thrombin based on 1500 u/kg (80% to 90% of the lethal dose) through tail intravenous injection. The mice were observed after the administration for their death within 15 min.
(1) Recording mortality rate: the death status of mice with acute pulmonary embolism mice within 15 min was recorded and the survival time was recorded, to calculate the mortality rate;
(2) Determining lung coefficient: immediately after death, the bronchial and adipose tissues were dissected away from the lung tissue, and the lung tissue was washed with distilled water, and weighed for the lung weight after soaking up the water on the surface of the lung with a filter paper. The lung was taken out and weighed, to calculate the lung coefficient. Lung coefficient=Lung weight/Body weight×100%;
The lung was immediately dissected and taken out and weighed to determine the lung coefficient.

[7] = iv 0.041 + 0.125 (mg/kg + mg/kg/h)
[8] = iv 0.125 + 0.375 (mg/kg + mg/kg/h)
[9] = iv 0.25 + 0.75 (mg/kg + mg/kg/h)
[10] = iv 0.5 + 1.25 (mg/kg + mg/kg/h)
[11] = iv 1.5 + 3.75 (mg/kg + mg/kg/h)
[12] = single iv 3.0 mg/kg, Administration 5 min
[13] = single iv 3.0 mg/kg, Administration 15 min
[14] = single iv 3.0 mg/kg, Administration for 5 min
[15] = single iv 3.0 mg/kg, Administration for 15 min
[16] = single iv 3.0 mg/kg, Before administration
[17] = single iv 6.0 mg/kg, Administration 5 min
[18] = single iv 6.0 mg/kg, Administration 15 min
[19] = single iv 6.0 mg/kg, Administration for 5 min
[20] = single iv 6.0 mg/kg, Administration for 15 min
[21] = single iv 6.0 mg/kg, Before administration
[22] = single iv 12.0 mg/kg, Administration 5 min
[23] = single iv 12.0 mg/kg, Administration 15 min
[24] = single iv 12.0 mg/kg, Administration for 5 min
[25] = single iv 12.0 mg/kg, Administration for 15 min
[26] = single iv 12.0 mg/kg, Before administration

D-Phe Pro Arg Pro Gly Gly Gly Gly Asn Gly Asp Phe Glu Glu Ile Pro Glu Glu Tyr Leu Glu Ala Ala Ala Lys Cys Har Gly Asp Trp Pro Cys [Polypeptide 2]
Common carotid arterial thrombosis OT [1, 7]: 20.20 ± 10.00 min | Common carotid arterial thrombosis Fold of prolongation [1, 8]: 27.99 | Common carotid arterial thrombosis OT [1, 8]: 16.23 ± 6.76 min | Common carotid arterial thrombosis Fold of prolongation [1, 9]: 36.85 | Common carotid arterial thrombosis OT [1, 9]: 14.23 ± 4.82 min | Common carotid arterial thrombosis OT [1, 10]: 9.25 ± 4.86 min | Common carotid arterial thrombosis Fold of prolongation ([1]; iv 1 + 2.5 (mg/kg + mg/kg/h)): 56.03 | Common carotid arterial thrombosis OT ([1]; iv 1 + 2.5 (mg/kg + mg/kg/h)): 9.91 ± 6.20 min | Common carotid arterial thrombosis OT [1, 11]: 7.13 ± 3.46 min | APTT fold of prolongation [2, 12]: 1.2 ± 0.2 | APTT fold of prolongation [2, 13]: 1.0 ± 0.1 | APTT [2, 14]: 24.4 ± 4.2*^¥ s | APTT [2, 15]: 20.0 ± 3.1 s | APTT [2, 16]: 20.6 ± 1.2 s | APTT fold of prolongation [2, 17]: 2.1 ± 0.6 | APTT fold of prolongation [2, 18]: 1.5 ± 0.4 | APTT [2, 19]: 50.5 ± 3.6*^& s | APTT [2, 20]: 34.9 ± 2.7*^& s | APTT [2, 21]: 24.1 ± 1.0 s | APTT fold of prolongation [2, 22]: 2.3 ± 0.6 | APTT fold of prolongation [2, 23]: 1.6 ± 0.5 | APTT [2, 24]: 54.4 ± 3.6*^& s | APTT [2, 25]: 37.0 ± 2.7*^& s | APTT [2, 26]: 23.3 ± 1.0 s | Inferior vena cava thrombosis Inhibition percentage [3, 7]: 10.38% | Inferior vena cava thrombosis Thrombus weight [3, 7]: 20.20 ± 10.00 mg | Inferior vena cava thrombosis Inhibition percentage [3, 8]: 27.99% | Inferior vena cava thrombosis Thrombus weight [3, 8]: 16.23 ± 6.76 mg | Inferior vena cava thrombosis Inhibition percentage [3, 9]: 36.85% | Inferior vena cava thrombosis Thrombus weight [3, 9]: 14.23 ± 4.82 mg | Inferior vena cava thrombosis Inhibition percentage [3, 10]: 58.96% | Inferior vena cava thrombosis Thrombus weight [3, 10]: 9.25 ± 4.86 mg | Inferior vena cava thrombosis Inhibition percentage ([3]; iv 1 + 2.5 (mg/kg + mg/kg/h)): 56.03% | Inferior vena cava thrombosis Thrombus weight ([3]; iv 1 + 2.5 (mg/kg + mg/kg/h)): 9.91 ± 6.20 mg | Inferior vena cava thrombosis Inhibition percentage [3, 11]: 68.37% | Inferior vena cava thrombosis Thrombus weight [3, 11]: 7.13 ± 3.46 mg | inhibitory rate of platelet aggregation [4, 14]: 17.2 ± 6.7% | inhibitory rate of platelet aggregation [4, 15]: 6.3 ± 7.0% | inhibitory rate of platelet aggregation [4, 19]: 47.5 ± 5.8*^#¥& % | inhibitory rate of platelet aggregation [4, 20]: 15.4 ± 6.0% | inhibitory rate of platelet aggregation [4, 24]: 72.5 ± 6.2*#^¥&@ % | inhibitory rate of platelet aggregation [4, 25]: 46.0 ± 6.5*^#¥&@ % | PT fold of prolongation [5, 12]: 1.5 ± 0.4 | PT fold of prolongation [5, 13]: 1.2 ± 0.2 | PT [5, 14]: 8.9 ± 1.2 S | PT [5, 15]: 7.0 ± 0.8 S | PT [5, 16]: 6.0 ± 0.3 S | PT fold of prolongation [5, 17]: 2.0 ± 0.4 | PT fold of prolongation [5, 18]: 1.4 ± 0.3 | PT [5, 19]: 12.9 ± 1.1*^#¥ S | PT [5, 20]: 8.9 ± 0.7 S | PT [5, 21]: 6.3 ± 0.2 S | PT fold of prolongation [5, 22]: 3.0 ± 0.8 | PT fold of prolongation [5, 23]: 2.0 ± 0.6 | PT [5, 24]: 19.2 ± 1.1 *^¥& S | PT [5, 25]: 12.5 ± 0.7 *^¥&@ S | PT [5, 26]: 6.5 ± 0.2 S | Lung coefficient ([6]; tail iv 2.5 mg/kg): 0.94 ± 0.16 g/100 g | Number of platelets ([6]; tail iv 2.5 mg/kg): 165.33 ± 20.2 ×10^9 | Mortality rate ([6]; tail iv 2.5 mg/kg, 2.5 mg/kg): 60 ^ % | Mortality rate ([6]; tail iv 2.5 mg/kg, listed as polypeptide 2, 2.5 mg/kg): 60% | Lung coefficient ([6]; tail iv 5.0 mg/kg): 1.08 ± 0.27 g/100 g | Number of platelets ([6]; tail iv 5.0 mg/kg): 207.83 ± 33.09 ×10^9 | Mortality rate ([6]; tail iv 5.0 mg/kg, 5 mg/kg): 30**^# % | Mortality rate ([6]; tail iv 5.0 mg/kg, listed as polypeptide 2, 5 mg/kg): 30% | Lung coefficient ([6]; tail iv 10.0 mg/kg): 0.83 ± 0.14 g/100 g | Number of platelets ([6]; tail iv 10.0 mg/kg): 529.57 ± 104.28 ×10^9 | Mortality rate ([6]; tail iv 10.0 mg/kg, 10 mg/kg): 10**^# % | Mortality rate ([6]; tail iv 10.0 mg/kg, listed as polypeptide 2, 10 mg/kg): 10%
